Patent US10214512B2, “Factor XIA inhibitors” (MERCK SHARP & DOHME CORP., priority 2015, dated 2019)

What was measured:
[1] = target: purified human Factor XIa (Homo sapiens (Human), UniProt P03951); experiment: Factor XIa Assay; format: biochemical; details: purified human Factor XIa 40 pM; substrate Z-Gly-Pro-Arg-AFC 100 μM; 50 mM HEPES pH 7.4; read-out: Human FXIa Ki
Outline: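 Purified human FXIa at 40 pM final with fluorogenic Z-Gly-Pro-Arg-AFC at 100 μM, in 50 mM HEPES pH 7.4, 150 mM NaCl, 5 mM CaCl2, 0.1% PEG 8000, at rt or 37° C. Initial velocities measured after enzyme–inhibitor equilibration; Ki derived from Vo/Vi versus [I] assuming competitive inhibition.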

[2] = target: purified Human plasma Kallikrein (Homo sapiens (Human), UniProt P03952); experiment: Kallikrein Assay; format: biochemical; details: purified Human plasma Kallikrein 0.5 nM; substrate Acetyl-K-P-R-AFC; 50 mM HEPES pH 7.4; Ki from IC50 by Cheng Prusoff
Outline: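 Purified human plasma kallikrein (0.5 nM) with fluorogenic Ac-K-P-R-AFC ([…]) in 50 mM HEPES pH 7.4, 150 mM NaCl, 5 mM CaCl2, 0.1% PEG 8000, at rt or 37 °C. Substrate hydrolysis rate read with and without inhibitor; IC50 from four-parameter logistic fit, converted to Ki by Cheng–Prusoff.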

Chain of purified human Factor XIa (P03951 388-625): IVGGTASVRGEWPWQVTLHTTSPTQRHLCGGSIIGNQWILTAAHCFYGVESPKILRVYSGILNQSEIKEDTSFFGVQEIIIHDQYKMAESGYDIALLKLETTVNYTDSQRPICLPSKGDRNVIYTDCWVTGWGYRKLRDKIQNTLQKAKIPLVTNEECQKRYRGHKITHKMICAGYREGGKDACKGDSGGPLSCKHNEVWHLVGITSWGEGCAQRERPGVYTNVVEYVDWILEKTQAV
Chain of purified human Factor XIa (P03951 19-387 partner): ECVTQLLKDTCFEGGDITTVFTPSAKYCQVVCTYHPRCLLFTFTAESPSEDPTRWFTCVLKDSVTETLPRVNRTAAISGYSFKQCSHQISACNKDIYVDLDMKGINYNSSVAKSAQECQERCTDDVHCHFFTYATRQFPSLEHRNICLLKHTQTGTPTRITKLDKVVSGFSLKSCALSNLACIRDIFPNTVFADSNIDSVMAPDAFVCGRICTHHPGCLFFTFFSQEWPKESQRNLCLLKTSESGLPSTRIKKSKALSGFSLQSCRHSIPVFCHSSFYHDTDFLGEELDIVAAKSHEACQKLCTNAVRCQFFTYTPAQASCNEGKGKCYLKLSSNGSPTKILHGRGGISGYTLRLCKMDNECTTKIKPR
Chain of purified Human plasma Kallikrein (P03952 391-638): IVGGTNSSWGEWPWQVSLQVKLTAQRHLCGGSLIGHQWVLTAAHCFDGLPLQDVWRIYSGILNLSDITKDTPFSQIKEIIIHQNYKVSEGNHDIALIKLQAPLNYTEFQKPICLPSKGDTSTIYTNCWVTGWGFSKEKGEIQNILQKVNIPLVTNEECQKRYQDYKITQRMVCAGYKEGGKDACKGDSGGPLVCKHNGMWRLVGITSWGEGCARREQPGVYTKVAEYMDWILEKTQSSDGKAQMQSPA
Chain of purified Human plasma Kallikrein (P03952 20-390 partner): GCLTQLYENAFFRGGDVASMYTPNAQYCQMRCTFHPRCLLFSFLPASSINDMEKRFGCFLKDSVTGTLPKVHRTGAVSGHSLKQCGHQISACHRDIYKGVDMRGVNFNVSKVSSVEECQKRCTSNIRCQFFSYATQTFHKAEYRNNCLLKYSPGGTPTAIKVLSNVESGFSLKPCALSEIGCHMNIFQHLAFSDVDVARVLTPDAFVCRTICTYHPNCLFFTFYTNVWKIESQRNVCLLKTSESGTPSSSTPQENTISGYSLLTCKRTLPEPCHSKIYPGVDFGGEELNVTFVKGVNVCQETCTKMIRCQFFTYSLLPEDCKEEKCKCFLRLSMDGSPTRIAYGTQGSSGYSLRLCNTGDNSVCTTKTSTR

| SMILES | Ki [1] | Ki [2] |
| --- | --- | --- |
| COC(=O)Nc1ccc2c(c1)NC(=O)CCCCC(c1ccc(-c3c(OC(F)F)ccc(Cl)c3F)c[n+]1[O-])c1nc-2c[nH]1 (single isomer, unassigned) [Example 100-a, (Z)-5-(3-Chloro-6-(difluoromethoxy)-2-fluorophenyl)-2-(2^4-((methoxycarbonyl)amino)-4-oxo-1^1H-3-aza-1(4,2)-imidazola-2(1,2) -benzenacyclononaphane-9-yl)pyridine 1-oxide] | 0.33 nM | 1.02 nM |
| COC(=O)Nc1ccc2c(c1)NC(=O)CCCCC(c1ccc(-c3c(F)cccc3OC(F)F)c[n+]1[O-])c1nc-2c[nH]1 (single isomer, unassigned) [Example 101-a, (Z)-5-(2-(Difluoromethoxy)-6-fluorophenyl)-2-(2^4-((methoxycarbonyl)amino)-4-oxo-1^1H-3-aza-1(4,2)-imidazola-2(1,2) -benzenacyclononaphane-9-yl)pyridine 1-oxide] | 0.34 nM | 3.9 nM |
| COC(=O)Nc1ccc2c(c1)NC(=O)CCCCC(c1ccc(-c3cc(Cl)ccc3OC(F)F)c[n+]1[O-])c1nc-2c[nH]1 (single isomer, unassigned) [Example 102-a, (Z)-5-(5-Chloro-2-(difluoromethoxy)phenyl)-2-(2^4-((methoxycarbonyl)amino)-4-oxo-1^1H-3-aza-1(4,2)-imidazola-2(1,2) -benzenacyclononaphane-9-yl)pyridine 1-oxide] | 0.14 nM | 0.43 nM |
| COC(=O)Nc1ccc2c(c1)NC(=O)CCCCC(c1ccc(-c3c(F)cc(I)c(Cl)c3F)c[n+]1[O-])c1nc-2c[nH]1 (single isomer, unassigned) [Example 103-a, (Z)-5-(3-Chloro-2,6-difluoro-4-iodophenyl)-2-(2^4-((methoxycarbonyl)amino)-4-oxo-1^1H-3-aza-1(4,2)-imidazola-2(1,2) -benzenacyclononaphane-9-yl)pyridine 1-oxide] | 1.7 nM | 137 nM |
| O=C1CCCCC(c2ccc(-c3c(F)ccc(Cl)c3F)c[n+]2[O-])c2nc(c[nH]2)-c2cc(F)ccc2N1 (single isomer, unassigned) [Example 104-a] | 10.8 nM | 26.3 nM |
| O=C1CCCCC(c2ccc(-c3cc(Cl)ccc3-n3cc(C(F)F)nn3)c[n+]2[O-])c2nc(c[nH]2)-c2cc(F)ccc2N1 (single isomer, unassigned) [Example 105-a, (Z)-5-(5-Chloro-2-(4-(difluoromethyl)-1H-1,2,3-triazol-1-yl)phenyl)-2-(2^5-fluoro-4-oxo-1^1H-3-aza-1 (4,2)-imidazola-2(1,2)-benzenacyclononaphane-9-yl)pyridine 1-oxide] | 0.56 nM | 17.2 nM |
| Nc1ccc2c(c1)NC(=O)CCCCC(c1ccc(-c3c(F)ccc(Cl)c3F)c[n+]1[O-])c1nc-2c[nH]1 (single isomer, unassigned) [Example 108-a] | 0.18 nM | 1.02 nM |
| CCOC(=O)Nc1ccc2c(c1)NC(=O)CCCCC(c1ccc(-c3c(F)ccc(Cl)c3F)c[n+]1[O-])c1nc-2c[nH]1 (single isomer, unassigned) [Example 109-a, (Z)-5-(3-chloro-2,6-difluorophenyl)-2-(2^4-((ethoxycarbonyl)amino)-4-oxo-1^1H-3-aza-1(4,2)-imidazola-2(1,2)-benzenacyclononaphane-9-yl)pyridine 1-oxide] | 0.23 nM | 0.77 nM |
| COC(=O)Nc1ccc2c(c1)NC(=O)CCCCC(c1ccc(-c3c(F)ccc(Cl)c3F)c[n+]1[O-])c1nc-2c(Cl)[nH]1 (single isomer, unassigned) [Example 110-a, (Z)-5-(3-Chloro-2,6-difluorophenyl)-2-(1^5-chloro-2^4-((Methoxycarbonyl)amino)-4-oxo-1^1H-3-aza-1(4,2)-imidazola-2(1,2) -benzenacyclononaphane-9-yl)pyridine 1-oxide] | 0.52 nM | 0.21 nM |
| COC(=O)Nc1ccc2c(c1)NC(=O)CCCCC(c1ccc(-c3c(F)ccc(Cl)c3F)c[n+]1[O-])c1nc-2c(C)[nH]1 (single isomer, unassigned) [Example 111-a, (Z)-5-(3-chloro-2,6-difluorophenyl)-2-(2^4-((methoxycarbonyl)amino)-1^5-methyl-4-oxo-1^1H-3-aza-1(4,2)-imidazola-2(1,2) -benzenacyclononaphane-9-yl)pyridine 1-oxide] | 0.19 nM | 0.34 nM |
| CCc1[nH]c2nc1-c1ccc(NC(=O)OC)cc1NC(=O)CCCCC2c1ccc(-c2c(F)ccc(Cl)c2F)c[n+]1[O-] (single isomer, unassigned) [Example 112-a, (Z)-5-(3-Chloro-2,6-difluorophenyl)-2-(1^5-ethyl-2^4-((Methoxycarbonyl)amino)-4-oxo-1^1H-3-AZA-1(4,2)-imidazola-2(1,2) -benzenacyclononaphane-9-yl)pyridine 1-oxide] | 0.13 nM | 0.26 nM |
| COC(=O)Nc1ccc2c(c1)NC(=O)CCCCC(c1ccc(-c3c(F)cccc3OC(F)F)c[n+]1[O-])c1nc-2c(C2CC2)[nH]1 (single isomer, unassigned) [Example 113-a, (Z)-2-(1^5-cyclopropyl-2^4-((methoxycarbonyl)amino)-4-oxo-1^1H-3-aza-1(4,2)-imidazola-2(1,2)-benzenacyclononaphane-9-yl)-5-(2-(difluoromethoxy)-6-fluorophenyl)pyridine 1-oxide] | 0.21 nM | 1.87 nM |
| O=C1CCCC[C@H](c2ccc(-c3cc(Cl)ccc3-c3cnco3)c[n+]2[O-])c2nc(c[nH]2)-c2cc(F)ccc2N1 (single isomer, unassigned) [Example 118] | 5.69 nM | 37.5 nM |
| COC(=O)Nc1ccc2c(c1)NC(=O)CCCC[C@H](c1ccc(-c3c(F)cccc3F)c[n+]1[O-])c1nc-2c(C)[nH]1 (single isomer, unassigned) [Example 119] | 0.54 nM | 1.68 nM |
| COC(=O)Nc1ccc2c(c1)NC(=O)CCCC[C@H](c1ccc(-c3ccccc3C(F)(F)F)c[n+]1[O-])c1nc-2c(C)[nH]1 (single isomer, unassigned) [Example 121] | 0.43 nM | 3.9 nM |
| COC(=O)Nc1ccc2c(c1)NC(=O)CCCC[C@H](c1ccc(-c3c(F)cccc3C(F)(F)F)c[n+]1[O-])c1nc-2c(C)[nH]1 (single isomer, unassigned) [Example 122] | 0.36 nM | 2.96 nM |
| COC(=O)Nc1ccc2c(c1)NC(=O)CCCC[C@H](c1ccc(-c3c(C(F)(F)F)ccc(Cl)c3F)c[n+]1[O-])c1nc-2c(C)[nH]1 (single isomer, unassigned) [Example 123] | 0.42 nM | 1.41 nM |
| COC(=O)Nc1ccc2c(c1)NC(=O)CCCC[C@H](c1ccc(-c3c(C(F)F)ccc(Cl)c3F)c[n+]1[O-])c1nc-2c(C)[nH]1 (single isomer, unassigned) [Example 124] | 0.2 nM | 0.73 nM |
| CCc1[nH]c2nc1-c1ccc(NC(=O)OC)cc1NC(=O)CCCC[C@@H]2c1ccc(-c2c(F)cccc2OC(F)F)c[n+]1[O-] (single isomer, unassigned) [Example 127] | 0.15 nM | 2.44 nM |
| Cc1[nH]c2nc1-c1ccc(N)cc1NC(=O)CCCC[C@@H]2c1ccc(-c2c(F)ccc(Cl)c2F)c[n+]1[O-] (single isomer, unassigned) [Example 128] | 0.14 nM | 0.74 nM |
| COC(=O)Nc1ccc2c(c1)NC(=O)CCCC[C@H](c1ccc(-c3cc(F)ccc3OC(F)F)c[n+]1[O-])c1nc-2c(C)[nH]1 (single isomer, unassigned) [Example 129] | 0.12 nM | 1.72 nM |
| COC(=O)Nc1ccc2c(c1)NC(=O)CCCC[C@H](c1ccc(-c3cc(F)ccc3OC(F)(F)F)c[n+]1[O-])c1nc-2c(C)[nH]1 (single isomer, unassigned) [Example 132] | 0.22 nM | 5.94 nM |
| CCc1[nH]c2nc1-c1ccc(NC(=O)OC)cc1NC(=O)CCCC[C@@H]2c1ccc(-c2cc(F)ccc2OC(F)(F)F)c[n+]1[O-] (single isomer, unassigned) [Example 133] | 0.46 nM | 5.08 nM |
| CCc1[nH]c2nc1-c1ccc(NC(=O)OC)cc1NC(=O)CCCC[C@@H]2c1ccc(-c2c(F)cccc2-n2cc(C(F)(F)F)cn2)c[n+]1[O-] (single isomer, unassigned) [Example 138] | 2.3 nM | 665 nM |
| COC(=O)Nc1ccc2c(c1)NC(=O)CCCC[C@H](c1ccc(-c3cc(Cl)ccc3-n3cccn3)c[n+]1[O-])c1nc-2c(C)[nH]1 (single isomer, unassigned) [Example 139] | 0.35 nM | 22.2 nM |
| COC(=O)Nc1ccc2c(c1)NC(=O)CCCC[C@H](c1ccc(-c3cc(Cl)ccc3-n3cc(C)cn3)c[n+]1[O-])c1nc-2c(C)[nH]1 (single isomer, unassigned) [Example 141] | 0.49 nM | 82.8 nM |
| Cc1[nH]c2nc1-c1cc(F)ccc1NC(=O)CCCC[C@@H]2c1ccc(-c2cc(F)ccc2-n2cnnn2)c[n+]1[O-] (single isomer, unassigned) [Example 142] | 0.47 nM | 56.7 nM |
| COC(=O)Nc1ccc2c(c1)NC(=O)[C@@H](C)CCC[C@H](c1ccc(-c3c(F)cccc3F)c[n+]1[O-])c1nc-2c(C)[nH]1 (single isomer, unassigned) [Example 143-a] | 0.33 nM | 1.61 nM |
| COC(=O)Nc1ccc2c(c1)NC(=O)[C@H](C)CCC[C@H](c1ccc(-c3c(F)cccc3F)c[n+]1[O-])c1nc-2c(C)[nH]1 (single isomer, unassigned) [Example 143-b] | 0.1 nM | 0.4 nM |
